Results as given in US7232912B2, “Indazole compounds, pharmaceutical compositions, and methods for mediating or inhibiting cell proliferation” (Agouron Pharmaceuticals, Inc., priority 2000, dated 2007).
Where two headings read alike, the source gives them in different places.

Experiments:
CDK4/cyclin D3 = CDK4/cyclin D3 (Homo sapiens, UniProt P11802); experiment: Inhibition of CDK4/Cyclin D Retinoblastoma Kinase Activity; type: biochemical; details: apparent Ki
Experimental: (§1) Cyclin-dependent kinase activity was measured by quantifying the enzyme-catalyzed, time-dependent incorporation of radioactive phosphate from [^32P]ATP or [^33P]ATP into a protein substrate. Unless noted otherwise, assays were performed in 96-well plates in a total volume of 50 μL, in the presence of 10 mM HEPES (N-[2-hydroxyethyl]piperazine-N′-[2-ethanesulfonic acid]) (pH 7.4), 10 mM MgCl2, 25 μM adenosine triphosphate (ATP), 1 mg/mL ovalbumin, 5 μg/mL leupeptin, 1 mM dithiothreitol, 10 mM beta-glycerophosphate, 0.1 mM sodium vanadate, 1 mM sodium fluoride, 2.5 mM ethylene glycol-bis(β-aminoethyl ethKer)-N,N,N′N′-tetraacetic acid (EGTA), 2% (v/v) dimethylsulfoxide, and 0.03–0.4 μCi [^32/33P]ATP per reaction. Reactions were initiated with appropriate enzyme, incubated at 30° C., and terminated after 20 minutes by the addition of ethylenediaminetetraacetic acid (EDTA) to 250 mM. The phosphorylated substrate was then captured on a nitrocellulose or phosphocellulose membrane using a 96-well filtration manifold, and unincorporated radioactivity was removed by repeated washing with 0.85% phosphoric acid. Radioactivity was quantified by exposing the dried membranes to a phosphorimager.
(§2) Apparent Ki values were measured by assaying enzyme activity in the presence of different inhibitor compound concentrations and subtracting the background radioactivity measured in the absence of enzyme. Inhibition data were fit to an equation for competitive inhibition using Kaleidagraph (Synergy Software), or were fit to an equation for competitive tight-binding inhibition using the software KineTic (BioKin, Ltd.).
Inhibition of CDK4/Cyclin D Retinoblastoma Kinase Activity
A complex of human CDK4 and cyclin D3, or a complex of human CDK4 and genetically truncated (1–264) cyclin D3, was purified using traditional biochemical chromatographic techniques from insect cells that had been co-infected with the corresponding baculovirus expression vectors (see e.g., Meijer and Kim, “Chemical Inhibitors of Cyclin-Dependent Kinases,” Methods in Enzymol,. vol. 283 (1997), pp. 113–128.). The enzyme complex (5 or 50 nM) was assayed with 0.3–0.5 μg of purified recombinant retinoblastoma protein fragment (Rb) as a substrate. The engineered Rb fragment (residues 386–928 of the native retinoblastoma protein; 62.3 kDa) contains the majority of the phosphorylation sites found in the native 106-kDa protein, as well as a tag of six histidine residues for ease of purification. Phosphorylated Rb substrate was captured by microfiltration on a nitrocellulose membrane and quantified using a phosphorimager as described above. For measurement of tight-binding inhibitors, the enzyme complex concentration was lowered to 5 nM, and the assay duration was extended to 60 minutes, during which the time-dependence of product formation was linear.

CDK2/cyclin A = target: T1, CDK2/cyclin A (Homo sapiens, UniProt P24941); experiment: Inhibition of CDK2/Cyclin A Retinoblastoma Kinase Activity; type: biochemical; details: apparent Ki
T1 construct: made in house; host or cells: CDK2: insect cells (baculovirus); cyclin A: E. coli
Experimental: as §1, §2
Inhibition of CDK2/Cyclin A Retinoblastoma Kinase Activity
CDK2 was purified using published methodology (Rosenblatt et al., “Purification and Crystallization of Human Cyclin-dependent Kinase 2,” J. Mol. Biol., vol. 230, 1993, pp. 1317–1319) from insect cells that had been infected with a baculovirus expression vector. […] A complex of CDK2 and proteolyzed cyclin A was prepared and purified by gel filtration. The substrate for this assay was the same Rb substrate fragment used for the CDK4 assays, and the methodology of the CDK2/cyclin A and the CDK4/cyclin D3 assays was essentially the same, except that CDK2 was present at 150 nM or 5 nM. Ki values were measured as described above.

HCT 116 cell line = experiment: Inhibition of Cell Growth (MTT tetrazolium salt assay); type: cell-based; details: Homo sapiens
Experimental: Inhibition of Cell Growth: Assessment of Cytotoxicity
Inhibition of cell growth was measured using the tetrazolium salt assay, which is based on the ability of viable cells to reduce 3-(4,5-dimethylthiazol-2-yl)-2,5-[2H]-diphenyltetrazolium bromide (MTT) to formazan (Mossman, Journal of Immunological Methods, vol. 65 (1983), pp. 55–58). The water-insoluble purple formazan product was then detected spectrophotometrically. The HCT 116 cell line was grown in 96-well plates. Cells were plated in the appropriate medium at a volume of 135 μl/well in McCoy's 5A Medium. Plates were incubated for four hours before addition of inhibitor compounds. Different concentrations of inhibitor compounds were added in 0.5% (v/v) dimethylsulfoxide (15 μL/well), and cells were incubated at 37° C. (5% CO2) for four to six days (depending on cell type). At the end of the incubation, MTT was added to a final concentration of 0.2 mg/mL, and cells were incubated for 4 hours more at 37° C. After centrifugation of the plates and removal of medium, the absorbance of the formazan (solubilized in dimethylsulfoxide) was measured at 540 nm. The concentration of inhibitor compound causing 50% inhibition of growth was determined from the linear portion of a semi-log plot of inhibitor concentration versus percentage inhibition. All results were compared to control cells treated only with 0.5% (v/v) dimethylsulfoxide.

[1] = HCT 116, MTT, 50% inhibition of growth, read-out: HCT 116 IC50
[2] = HCT 116, MTT, IC90, read-out: HCT 116 IC90
[3] = HCT-116, read-out: HCT 116 IC50 (uM)
[4] = HCT-116, read-out: HCT 116 IC90 (uM)

Sequence of CDK4/cyclin D3 (P11802 2-303 limits assumed): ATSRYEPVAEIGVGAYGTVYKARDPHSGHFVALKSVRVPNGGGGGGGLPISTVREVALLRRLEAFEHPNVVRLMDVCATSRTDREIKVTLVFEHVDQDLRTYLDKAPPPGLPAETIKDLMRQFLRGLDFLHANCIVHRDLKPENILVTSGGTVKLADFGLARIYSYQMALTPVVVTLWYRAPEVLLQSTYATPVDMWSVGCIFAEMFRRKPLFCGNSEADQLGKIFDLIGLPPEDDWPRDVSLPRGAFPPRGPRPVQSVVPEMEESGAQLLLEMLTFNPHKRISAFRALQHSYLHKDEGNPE
Sequence of CDK4/cyclin D3 (P30281 1-264 limits assumed, further chain): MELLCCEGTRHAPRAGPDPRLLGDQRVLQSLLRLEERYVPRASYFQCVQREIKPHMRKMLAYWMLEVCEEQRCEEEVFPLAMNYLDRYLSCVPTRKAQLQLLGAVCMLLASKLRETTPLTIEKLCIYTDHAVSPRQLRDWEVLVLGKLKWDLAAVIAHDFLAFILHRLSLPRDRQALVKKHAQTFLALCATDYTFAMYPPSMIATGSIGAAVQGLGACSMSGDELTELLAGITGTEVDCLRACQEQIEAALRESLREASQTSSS

Compound | Ki (CDK4/cyclin D3) | Ki (CDK2/cyclin A) | IC50 (HCT 116 cell line; [1]) | IC90 (HCT 116 cell line; [2]) | IC50 (HCT 116 cell line; [3]) | IC90 (HCT 116 cell line; [4])
c1ccc2c(-c3ccc4[nH]nc(-c5nc6c([nH]5)CCCC6)c4c3)cncc2c1 [Example 66, 4-[3-(4,5,6,7-Tetrahydro-1H-benzoimidazol-2-yl)-1H-indazol-5-yl]-isoquinoline] | 55 nM | 1 nM | 0.49 µM | 1.6 µM |  | 
Cc1nc(-c2n[nH]c3ccc(-c4cncc5ccccc45)cc23)[nH]c1-c1ccccc1 [Example 67, 4-[3-(4-Methyl-5-phenyl-1H-imidazol-2-yl)-1H-indazol-5-yl]-isoquinoline] | 220 nM | 16 nM |  |  | 2 µM | 4.7 µM
Cc1cncc(-c2ccc3[nH]nc(-c4nc5ccccc5[nH]4)c3c2)c1C [Example 75] | 9.8 nM | 1.4 nM | 0.4 µM | 1.3 µM |  | 
Cc1c(-c2ccc3[nH]nc(-c4nc5ccccc5[nH]4)c3c2)cnc2ccccc12 [Example 76, 3-[3-(1H-Benzoimidazol-2-yl)-1H-indazol-5-yl]-4-methyl-quinoline] | 150 nM | 27 nM | 0.5 µM | 0.5 µM |  | 
Cc1c(O)cncc1-c1ccc2[nH]nc(-c3nc4ccccc4[nH]3)c2c1 [Example 77, 5-[3-(1H-Benzoimidazol-2-yl)-1H-indazol-5-yl]-4-methyl-pyridin-3-ol] | 5.8 nM | 0.38 nM | 0.31 µM | 0.5 µM |  | 
Cc1c(CNC(C)C)cncc1-c1ccc2[nH]nc(-c3nc4ccccc4[nH]3)c2c1 [Example 78, {5-[3-(1H-Benzoimidazol-2-yl)-1H-indazol-5-yl]-4-methyl-pyridin-3-ylmethyl}-isopropyl-amine] | 5.5 nM | 0.7 nM |  |  | 0.085 µM | 0.22 µM
Cc1c(CNCC(C)C)cncc1-c1ccc2[nH]nc(-c3nc4ccccc4[nH]3)c2c1 [Example 87, {5-[3-(1H-Benzoimidazol-2-yl)-1H-indazol-5-yl]-4-methyl-pyridin-3-ylmethyl}-isobutyl-amine] | 4.2 nM | 1.9 nM | 0.16 µM | 0.42 µM |  | 
Cc1c(CNCc2ccccc2)cncc1-c1ccc2[nH]nc(-c3nc4ccccc4[nH]3)c2c1 [Example 88, {5-[3-(1H-Benzoimidazol-2-yl)-1H-indazol-5-yl]-4-methyl-pyridin-3-ylmethyl}-benzyl-amine] | 3.5 nM | 1.4 nM | > 0.5 µM | > 0.5 µM |  | 
Cc1c(CN2CCOCC2)cncc1-c1ccc2[nH]nc(-c3nc4ccccc4[nH]3)c2c1 [Example 91, 3-(1H-Benzoimidazol-2-yl)-5-(4-methyl-5-morpholin-4-ylmethyl-pyridin-3-yl)-1H-indazole] | 7.5 nM | 2.8 nM | 0.34 µM | > 0.5 µM |  | 
Cc1c(CNC2CCCC2)cncc1-c1ccc2[nH]nc(-c3nc4ccccc4[nH]3)c2c1 [Example 92, {5-[3-(1H-Benzoimidazol-2-yl)-1H-indazol-5-yl]-4-methyl-pyridin-3-ylmethyl}-cyclopentyl-amine] | 7.8 nM | 2.7 nM | 0.18 µM | 0.5 µM |  | 

These reach a lower Ki (CDK4/cyclin D3). Values come first.

Ki (CDK4/cyclin D3) | Ki (CDK2/cyclin A) | IC50 (HCT 116 cell line; [1]) | IC90 (HCT 116 cell line; [2]) | Compound | IC50 (HCT 116 cell line; [3]) | IC90 (HCT 116 cell line; [4])
2.2 nM | 0.42 nM | 0.5 µM | 0.5 µM | C(=N\n1cccc1)/c1n[nH]c2ccc(-c3cncc4ccccc34)cc12 [Example 79, (5-Isoquinolin-4-yl-1H-indazol-3-ylmethylene)-pyrrol-1-yl-amine] |  | 
0.8 nM | 4.9 nM |  | 0.21 µM | CCNCc1cncc(-c2ccc3[nH]nc(-c4nc5c(SC)cccc5[nH]4)c3c2)c1C [Example 81, Ethyl-4-{methyl-5-[3-(4-methylsulfanyl-1H-benzoimidazol-2-yl)-1H-indazol-5-yl]-pyridin-3-ylmethyl}-amine] |  | 
1 nM | 0.94 nM | 0.15 µM | 0.25 µM | Cc1c(CNCCO)cncc1-c1ccc2[nH]nc(-c3nc4ccccc4[nH]3)c2c1 [Example 89, 2-({5-[3-(1H-Benzoimidazol-2-yl)-1H-indazol-5-yl]-4-methyl-pyridin-3-ylmethyl}-amino)-ethanol] |  | 
0.09 nM | 0.3 nM | 0.03 µM | 0.12 µM | CNC(C)c1cccc2[nH]c(-c3n[nH]c4ccc(-c5cncc6ccccc56)cc34)nc12 (centres unmarked) [Example 90, {1-[2-(5-Isoquinolin-4-yl-1H-indazol-3-yl)-1H-benzoimidazol-4-yl]-ethyl}-methyl-amine] |  | 
1.9 nM | 0.61 nM | 0.32 µM | > 0.5 µM | Cc1c(CNc2cccnc2)cncc1-c1ccc2[nH]nc(-c3nc4ccccc4[nH]3)c2c1 [Example 93, {5-[3-(1H-Benzoimidazol-2-yl)-1H-indazol-5-yl]-4-methyl-pyridin-3-ylmethyl}-pyridin-3-yl-amine] |  | 
